The subject of one assay is hGL‐R with RAMP2. Kind of assay: cAMP stimulation in Cos 7 cells transfected with hGL‐R and RAMP2. Format: cell-based, human. The note with it: preliminary experiment; data not shown. How it is done:
(§1) Cyclic AMP stimulation of transfected Cos 7 cells
(§2) Transfected cells were serum‐deprived in DMEM containing 1 mmol L^−1 IBMX and 0.1% (w/v) bovine serum albumin (BSA) for 30 min. […] Plates were incubated at 37°C for 10 min. […] Media were then aspirated from the wells and reactions terminated by addition of ice‐cold absolute ethanol. Ethanol was then evaporated to dryness and cell extracts re‐suspended in 45 μL cAMP assay buffer: cAMP concentrations were determined using ALPHA‐screen assay kits (Perkin Elmer, Massachusetts) as previously described (Gingell et al. 2010).

Assay [1] concerns the target T1, human glucagon receptor (hGL‐R) (Homo sapiens, UniProt P47871).
T1 construct: expressed in transfected cells; host or cells: Cos 7 cells
Kind of assay: cAMP stimulation in transfected Cos 7 cells, hGL‐R. Type of assay: cell-based. To be noted: preliminary experiment, hGL‐R with vector; data not shown. As for the experimental part:
Transfection of Cos 7 cells
Cos 7 cells were maintained and subcultured as previously described (Bailey and Hay 2006) and plated at a density of 15,000 cells per well into 96‐well plates 1 day prior to transfection. […] Cyclic AMP assays were performed 48 h after transfection (Bailey and Hay 2006). The human GRPP was obtained from Bachem (Bubendorf, Switzerland).
as §1, §2
Maximum pancreatic first‐phase insulin secretion in the presence of hormone infusion was contrasted with corresponding control values by unpaired Welch's t‐tests for preplanned comparisons, to allow for unequal variance between groups. Linear mixed‐effects models were fitted by restricted maximum likelihood (LME‐REML) to data obtained from each indicated phase of isolated perfused–organs studies, using S‐PLUS version 8.2 (TIBCO, Spotfire). Calculated P‐values <0.05 are presented in the article and reflect the likelihood ratio between two models, the effect in question (treatment, time, or treatment:time) against the model without the effect in question. Insulin secreted from isolated islets was expressed as a percentage of insulin content and compared using one‐way ANOVA (GraphPad Prism version 6.0: GraphPad Software Inc., San Diego, CA). […]

The subject of a further assay is canine pancreas. The note with it: local circulation preparation of the canine pancreas; ref Ohneda and Ohneda 1988; cited from earlier work. An excerpt: However, we know of only one study reporting the effects of GRPP on GSIS. […] The precise experimental conditions such as amount of glucose and experimental model used may have influences on the different outcomes; however, the reason for the opposing actions of GRPP between these ...

A further assay has as its system isolated rat islets. Kind of assay: Insulin secretion from isolated rat islets (static incubation). Format: cell-based. To be noted: hGRPP 1, 10, and 100 nmol L^−1, 1 h, 8 to 9 incubations of 10 islets/well, three experiments, ELISA. The text has this: Maximum pancreatic first‐phase insulin secretion in the presence of hormone infusion was contrasted with corresponding control values by unpaired Welch's t‐tests for preplanned comparisons, to allow for unequal variance between groups. Linear mixed‐effects models were fitted by restricted maximum likelihood (LME‐REML) to data obtained from each indicated phase of isolated perfused–organs studies, using S‐PLUS version 8.2 (TIBCO, Spotfire). Calculated P‐values <0.05 are presented in the article and reflect the likelihood ratio between two models, the effect in question (treatment, time, or treatment:time) against the model without the effect in question. Insulin secreted from isolated islets was expressed as a percentage of insulin content and compared using one‐way ANOVA (GraphPad Prism version 6.0: GraphPad Software Inc., San Diego, CA). Cyclic AMP data have been normalized to the response obtained to forskolin and fitted to obtain concentration–response curves using a three‐parameter logistic equation (GraphPad Prism version 6.0: GraphPad Software Inc., San Diego, CA): pEC50 values were obtained from the concentration–response curves and compared using one‐way ANOVA. All data are presented as mean ± SEM of three to four independent experiments.
(In an ELISA, binding on a coated surface is turned into a signal by an enzyme label.)

Assay [2] concerns plasma insulin and glucagon. To be noted: infusion in humans; ref Skamene and Patel 1984; cited from earlier work. An excerpt:
(§3) GRPP and GRPP‐LP may inhibit insulin secretion indirectly, perhaps by influencing other islet‐derived hormones known to modulate hormone secretion from the β‐cell.

In assay [3] the test system is isolated‐perfused rat pancreas, perifused rat islets, and cultured islets. The note with it: ref Norfleet et al. 1975, Fujimoto 1981, Bolaffi et al. 1990; cited from earlier work.
Source text: as §3

The next assay deals with pancreatic β‐cell. The note with it: ref Metz et al. 1983; Zielmann et al. 1985; Holst et al. 1987; Shima et al. 1988; Goke et al. 1989; Ishizuka et al. 1991; Jia et al. 1995; Vahl et al. 2003; cited from earlier work.

Entries after “also recorded” stand apart in the source; their conditions may differ. Positions of bridges follow the written chain, without caps; N, C: chain ends. No end group written: not given here.

The source of these data is PMC4760439, “Glicentin‐related pancreatic polypeptide inhibits glucose‐stimulated insulin secretion from the isolated pancreas of adult male rats” (Physiological Reports, 2015).

T1 sequence (P47871 26-477): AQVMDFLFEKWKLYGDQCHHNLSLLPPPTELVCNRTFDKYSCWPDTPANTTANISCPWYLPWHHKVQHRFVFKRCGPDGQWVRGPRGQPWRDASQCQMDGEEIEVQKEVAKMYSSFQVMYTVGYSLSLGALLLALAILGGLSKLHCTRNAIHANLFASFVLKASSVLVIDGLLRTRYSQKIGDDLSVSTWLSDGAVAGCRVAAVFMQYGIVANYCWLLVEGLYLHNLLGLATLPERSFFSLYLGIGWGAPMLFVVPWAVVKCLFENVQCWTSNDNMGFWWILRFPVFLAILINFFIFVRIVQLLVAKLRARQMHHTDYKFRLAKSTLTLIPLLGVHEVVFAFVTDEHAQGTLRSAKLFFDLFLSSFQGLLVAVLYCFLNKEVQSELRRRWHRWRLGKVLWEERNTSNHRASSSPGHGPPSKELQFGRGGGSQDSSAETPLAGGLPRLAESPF

For “RSLQDTEEKSRSFSASQADPLSDPDQMNED [hGRPP, human glicentin‐related pancreatic polypeptide, The human GRPP was obtained from Bachem]”, in the assay on hGL‐R with RAMP2, the “Stimulation of cAMP production at hGL‐R in the presence of RAMP2” value is “did not stimulate cAMP production at hGL‐R alone or in the presence of RAMP2”. The “Stimulation of cAMP production at hGL‐R alone” value in assay [1] is listed as “did not stimulate cAMP production at hGL‐R alone”. In addition, in the assay on canine pancreas, the “Plasma insulin and glucagon, canine pancreas” value was “slight increases in plasma insulin and decreases in plasma glucagon”. The “Basal insulin secretion from islets (vs control)” value in the assay with isolated rat islets (2.8 mmol L^−1 glucose) was “did not affect insulin secretion; also recorded: did not affect basal or stimulated insulin compared with untreated islets”. Further, the “Glucose‐stimulated insulin secretion from islets (vs control)” value with isolated rat islets (16.7 mmol L^−1 glucose) is given as “did not affect insulin secretion; also recorded: did not affect basal or stimulated insulin compared with untreated islets”.
Turning to “somatostatin (AGCKNFFWKTFTSC; disulfide 3-14; ends not checked; UniProt P61278 103-116, looked up) [SST]”, the “Arginine‐stimulated plasma insulin and glucagon levels” value in assay [2] is “decreased arginine‐stimulated plasma insulin and glucagon levels in a dose‐dependent manner”. The “GSIS and arginine‐stimulated glucagon secretion” value in assay [3] is recorded as “inhibits GSIS as well as arginine‐stimulated glucagon secretion”.
“glucagon‐like peptide 1 (HAEGTFTSDVSSYLEGQAAKEFIAWLVKGR; ends and bridges not checked; UniProt P01275 98-127, looked up) [GLP‐1, incretin; literature statement, form not specified]”: the “GSIS (action on pancreatic β‐cell)” value in the assay with pancreatic β‐cell was “enhance glucose‐stimulated insulin secretion”.
